Laboratory results taken from patent US20240158446A1, “CYCLIC COMPOUND HAVING SELECTIVE INHIBITORY ACTION ON KRAS OVER HRAS AND NRAS” (CHUGAI SEIYAKU KABUSHIKI KAISHA, priority 2021, published 2024).
*1 amine or outer side, *2 acyl side, *3 side chain or, on linkers, in order; H or OH if unused. Where a SMILES comes first, the peptide text is derived from it. Bridges are numbered along the chain shown (N, C = ends). [ ]: non-standard residue; d: D form. The star is where a group is joined. hPhe(3-Cl-4-CF3) = N[C@@H](CCc1ccc(C(F)(F)F)c(Cl)c1)C(=O)O; NPrPhe(4-CF3) = CCCN[C@@H](Cc1ccc(C(F)(F)F)cc1)C(=O)O; NPrAsp = CCCN([C@@H](CC(=O)[*:3])C(=O)[*:2])[*:1]; NEtAsp = CCN([C@@H](CC(=O)[*:3])C(=O)[*:2])[*:1]; X7 = CCN([C@H](C(=O)[*:2])C1CCCC1)[*:1]; NMeGly(cPent) = CN[C@H](C(=O)O)C1CCCC1; NEtLeu = CCN[C@@H](CC(C)C)C(=O)O; NMeD = CN[C@@H](CC(=O)O)C(=O)O; NMeL = CN[C@@H](CC(C)C)C(=O)O; NMeNva = CCC[C@H](NC)C(=O)O; Morpholide = C1CN(*)CCO1; NMeA = CN[C@@H](C)C(=O)O; Aze = O=C(O)[C@@H]1CCN1; Ac4c = NC1(C(=O)O)CCC1; NPrGly = CCCNCC(=O)O; NEtG = CCNCC(=O)O; Sar = CNCC(=O)O

Experiments:
[1] = target: GDP-bound NRAS wild-type protein (Homo sapiens, UniProt P01111); assay: Binding to NRAS by surface plasmon resonance (SPR), Single Cycle Kinetics; details: ratio of KD for GDP-bound NRAS wild-type protein to KD for KRAS, SPR
[2] = test system: human lung cancer strain NCI-H441; assay: cells; details: NCI-H441, 96 h, read-out: NCI-H441 IC50 (nM), NCI-H441 cell proliferation, 4 days, CellTiter-Glo;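 also: cell proliferation inhibition after four days measured by CellTiter-Glo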
[3] = target: GDP-bound KRAS wild-type protein (Homo sapiens, UniProt P01116); assay: Binding to KRAS by surface plasmon resonance (SPR), Single Cycle Kinetics; details: SPR, Single Cycle Kinetics, GDP-bound KRAS wild-type protein; read-out: KRAS KD
[4] = target: GDP-bound HRAS wild-type protein (Homo sapiens, UniProt P01112); assay: Binding to HRAS by surface plasmon resonance (SPR), Single Cycle Kinetics; details: ratio of KD for GDP-bound HRAS wild-type protein to KD for KRAS, SPR
GDP-bound HRAS wild-type protein, sequence (P01112 whole entry): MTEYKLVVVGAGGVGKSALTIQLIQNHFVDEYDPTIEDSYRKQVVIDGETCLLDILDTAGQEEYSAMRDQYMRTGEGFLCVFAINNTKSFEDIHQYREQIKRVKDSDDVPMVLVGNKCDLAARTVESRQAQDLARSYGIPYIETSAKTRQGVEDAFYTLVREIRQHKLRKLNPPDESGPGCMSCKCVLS

GDP-bound KRAS wild-type protein, sequence (P01116 whole entry): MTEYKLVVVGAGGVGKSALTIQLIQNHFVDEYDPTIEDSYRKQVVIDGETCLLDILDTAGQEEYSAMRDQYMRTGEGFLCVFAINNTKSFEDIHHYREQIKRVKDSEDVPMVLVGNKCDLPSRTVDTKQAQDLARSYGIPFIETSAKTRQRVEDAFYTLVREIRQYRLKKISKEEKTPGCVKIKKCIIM
GDP-bound NRAS wild-type protein, sequence (P01111 whole entry): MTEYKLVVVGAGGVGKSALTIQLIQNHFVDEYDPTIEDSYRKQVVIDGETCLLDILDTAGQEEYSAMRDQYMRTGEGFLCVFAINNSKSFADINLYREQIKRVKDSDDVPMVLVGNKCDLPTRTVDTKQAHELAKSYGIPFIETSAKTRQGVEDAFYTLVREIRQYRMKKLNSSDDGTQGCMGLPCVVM

IC50 [2] | Kd [3] | SMILES | NRAS/KRAS (KD ratio) [1] | HRAS/KRAS (KD ratio) [4]
12.3 nM | 0.4 nM | CCC[C@H]1C(=O)N[C@@H]([C@@H](C)CC)C(=O)N(C)CC(=O)N(C)[C@H]2C/C=C\CCN(C2=O)[C@@H](Cc2ccc(C(F)(F)F)cc2)C(=O)N(C)CC(=O)N[C@@H](CCc2cc(F)c(C(F)(F)F)c(F)c2)C(=O)N(C)[C@@H](COC)C(=O)NC2(CC(C)(C)C2)C(=O)N(C)[C@@H](C2CCCC2)C(=O)N(C)[C@H](C(=O)N(C)C)CC(=O)N1C [PP1936] | AA (a compound having 20 or more is denoted as AA) | A (a compound having 10 or more and less than 20 is denoted as A)
9.2 nM | 0.17 nM | CCC[C@H]1C(=O)N[C@@H]([C@@H](C)CC)C(=O)N(C)CC(=O)N(C)[C@H]2C/C=C\CCN(C2=O)[C@@H](Cc2ccc(C(F)(F)F)cc2)C(=O)N(C)CC(=O)N[C@@H](CCc2cc(F)c(C(F)(F)F)c(F)c2)C(=O)N2C[C@H](OCC)C[C@H]2C(=O)NC2(CC(C)(C)C2)C(=O)N(C)[C@@H]([C@@H](C)CC)C(=O)N(C)[C@H](C(=O)N(C)C)CC(=O)N1C [PP1941] | A (a compound having 10 or more and less than 20 is denoted as A) | A (a compound having 10 or more and less than 20 is denoted as A)
25.7 nM | 0.15 nM | CCO[C@@H]1C[C@H]2C(=O)NC3(CC(C)(C)C3)C(=O)N(C)[C@@H](C3CCCCC3)C(=O)N(C)[C@H](C(=O)N(C)C)CC(=O)N(C)[C@@H](CC)C(=O)N[C@@H]([C@@H](C)CC)C(=O)N(C)CC(=O)N(C)[C@H]3C/C=C\CCN(C3=O)[C@@H](Cc3ccc(C(F)(F)F)cc3)C(=O)N(C)CC(=O)N[C@@H](CCc3cc(F)c(C(F)(F)F)c(F)c3)C(=O)N2C1 [PP1942] | AA (a compound having 20 or more is denoted as AA) | A (a compound having 10 or more and less than 20 is denoted as A)
9.2 nM | 0.11 nM | CCC[C@H]1C(=O)N[C@@H]([C@@H](C)CC)C(=O)N(C)CC(=O)N(C)[C@H]2C/C=C\CCN(C2=O)[C@@H](Cc2ccc(C(F)(F)F)cc2)C(=O)N(C)CC(=O)N[C@@H](CCc2cc(F)c(C(F)(F)F)c(F)c2)C(=O)N2C[C@H](OCC)C[C@H]2C(=O)NC2(CC(C)(C)C2)C(=O)N(C)[C@@H](C2CCCC2)C(=O)N(C)[C@H](C(=O)N2CCC2)CC(=O)N1C [PP1943] | A (a compound having 10 or more and less than 20 is denoted as A) | B (a compound having 3 or more and less than 10 is denoted as B)
14.8 nM | 0.19 nM | CCO[C@@H]1C[C@H]2C(=O)NC3(CC(C)(C)C3)C(=O)N(C)[C@@H](C3CCCC3)C(=O)N(C)[C@H](C(=O)N3CCCC3)CC(=O)N(C)[C@@H](CC)C(=O)N[C@@H]([C@@H](C)CC)C(=O)N(C)CC(=O)N(C)[C@H]3C/C=C\CCN(C3=O)[C@@H](Cc3ccc(C(F)(F)F)cc3)C(=O)N(C)CC(=O)N[C@@H](CCc3cc(F)c(C(F)(F)F)c(F)c3)C(=O)N2C1 [PP1944] | A (a compound having 10 or more and less than 20 is denoted as A) | A (a compound having 10 or more and less than 20 is denoted as A)
15.2 nM | 0.16 nM | CCCN1C(=O)CN(C)C(=O)CN(C)C(=O)[C@H]([C@@H](C)CC)NC(=O)[C@H](CC(C)C)N(CC)C(=O)C[C@@H](C(=O)N2CCOCC2)N(C)C(=O)[C@H](C2CCCC2)N(C)C(=O)C2(CCC2)NC(=O)[C@@H]2CCCN2C(=O)[C@H](CCc2ccc(C(F)(F)F)c(Cl)c2)NC(=O)CN(C)C(=O)[C@@H]1Cc1ccc(C(F)(F)F)cc1 [PP1946] ([NEtLeu]I[Sar][Sar][NPrPhe(4-CF3)][Sar][hPhe(3-Cl-4-CF3)]P[Ac4c][NMeGly(cPent)][NMeD]-Morpholide; lactam N-11) | B (a compound having 3 or more and less than 10 is denoted as B) | C (A compound having a KD ratio of 0.1 or more and less than 3 is denoted as C)
22 nM | 0.37 nM | CCC[C@H]1C(=O)N[C@@H]([C@@H](C)CC)C(=O)N(CCC)CC(=O)N(C)CC(=O)N(CCC)[C@@H](Cc2ccc(C(F)(F)F)cc2)C(=O)N(C)CC(=O)N[C@@H](CCc2ccc(C(F)(F)F)c(Cl)c2)C(=O)N2CCC[C@H]2C(=O)NC2(CCC2)C(=O)N(C)[C@@H](C2CCCC2)C(=O)N(C)[C@H](C(=O)N2CCOCC2)CC(=O)N1C [PP1947] ([NMeNva]I[NPrGly][Sar][NPrPhe(4-CF3)][Sar][hPhe(3-Cl-4-CF3)]P[Ac4c][NMeGly(cPent)][NMeD]-Morpholide; lactam N-11) | B (a compound having 3 or more and less than 10 is denoted as B) | B (a compound having 3 or more and less than 10 is denoted as B)
32.5 nM | 1.9 nM | CCCN1C(=O)CN(C)C(=O)CN(C)C(=O)[C@H]([C@@H](C)CC)NC(=O)[C@H](CC(C)C)N(C)C(=O)C[C@@H](C(=O)N2CCOCC2)N(C)C(=O)[C@H](C2CCCC2)N(C)C(=O)C2(CCC2)NC(=O)[C@@H]2CCCN2C(=O)[C@H](CCc2ccc(C(F)(F)F)c(Cl)c2)NC(=O)CN(CC)C(=O)[C@@H]1Cc1ccc(C(F)(F)F)cc1 [PP1950] ([NMeL]I[Sar][Sar][NPrPhe(4-CF3)][NEtG][hPhe(3-Cl-4-CF3)]P[Ac4c][NMeGly(cPent)][NMeD]-Morpholide; lactam N-11) | B (a compound having 3 or more and less than 10 is denoted as B) | C (A compound having a KD ratio of 0.1 or more and less than 3 is denoted as C)
14 nM | 0.13 nM | CCCN1C(=O)CN(C)C(=O)CN(C)C(=O)[C@H]([C@@H](C)CC)NC(=O)[C@H](CC(C)C)N(C)C(=O)C[C@@H](C(=O)N2CCOCC2)N(C)C(=O)[C@H](C2CCCC2)N(CC)C(=O)C2(CCC2)NC(=O)[C@@H]2CCCN2C(=O)[C@H](CCc2ccc(C(F)(F)F)c(Cl)c2)NC(=O)CN(C)C(=O)[C@@H]1Cc1ccc(C(F)(F)F)cc1 [PP1952] ([NMeL]I[Sar][Sar][NPrPhe(4-CF3)][Sar][hPhe(3-Cl-4-CF3)]P[Ac4c][X7][NMeD]-Morpholide; lactam N-11) | B (a compound having 3 or more and less than 10 is denoted as B) | B (a compound having 3 or more and less than 10 is denoted as B)
8.7 nM | 0.42 nM | CCCN1C(=O)CN(C)C(=O)CN(C)C(=O)[C@H]([C@@H](C)CC)NC(=O)[C@H](CC(C)C)N(C)C(=O)C[C@@H](C(=O)N2CCOCC2)N(CC)C(=O)[C@H](C2CCCC2)N(C)C(=O)C2(CCC2)NC(=O)[C@@H]2CCCN2C(=O)[C@H](CCc2ccc(C(F)(F)F)c(Cl)c2)NC(=O)CN(C)C(=O)[C@@H]1Cc1ccc(C(F)(F)F)cc1 [PP1953] ([NMeL]I[Sar][Sar][NPrPhe(4-CF3)][Sar][hPhe(3-Cl-4-CF3)]P[Ac4c][NMeGly(cPent)][NEtAsp]-Morpholide; lactam N-11) | B (a compound having 3 or more and less than 10 is denoted as B) | B (a compound having 3 or more and less than 10 is denoted as B)
8.1 nM | 0.77 nM | CCC[C@H]1C(=O)N[C@@H]([C@@H](C)CC)C(=O)N(C)CC(=O)N(C)CC(=O)N(CCC)[C@@H](Cc2ccc(C(F)(F)F)cc2)C(=O)N(C)CC(=O)N[C@@H](CCc2ccc(C(F)(F)F)c(Cl)c2)C(=O)N2CCC[C@H]2C(=O)NC2(CCC2)C(=O)N(C)[C@@H](C2CCCC2)C(=O)N(CCC)[C@H](C(=O)N2CCOCC2)CC(=O)N1C [PP1954] ([NMeNva]I[Sar][Sar][NPrPhe(4-CF3)][Sar][hPhe(3-Cl-4-CF3)]P[Ac4c][NMeGly(cPent)][NPrAsp]-Morpholide; lactam N-11) | B (a compound having 3 or more and less than 10 is denoted as B) | B (a compound having 3 or more and less than 10 is denoted as B)
4.4 nM | 0.82 nM | CCC[C@H]1C(=O)N[C@@H]([C@@H](C)CC)C(=O)N(C)[C@@H](C)C(=O)N2CC[C@H]2C(=O)N(CCC)[C@@H](Cc2ccc(C(F)(F)F)cc2)C(=O)N(C)CC(=O)N[C@@H](CCc2ccc(C(F)(F)F)c(Cl)c2)C(=O)N2CCC[C@H]2C(=O)NC2(CCC2)C(=O)N(C)[C@@H](C2CCCC2)C(=O)N(CC)[C@H](C(=O)N2CCOCC2)CC(=O)N1C [PP1955] ([NMeNva]I[NMeA][Aze][NPrPhe(4-CF3)][Sar][hPhe(3-Cl-4-CF3)]P[Ac4c][NMeGly(cPent)][NEtAsp]-Morpholide; lactam N-11) | C (A compound having a KD ratio of 0.1 or more and less than 3 is denoted as C) | B (a compound having 3 or more and less than 10 is denoted as B)

SMILES | IC50 [2] | Kd [3] | NRAS/KRAS (KD ratio) [1] | HRAS/KRAS (KD ratio) [4]
CCO[C@@H]1C[C@H]2C(=O)NC3(CC(C)(C)C3)C(=O)N(C)[C@@H](C3CCCC3)C(=O)N(C)[C@H](C(=O)N3CCCCC3)CC(=O)N(C)[C@@H](CC)C(=O)N[C@@H]([C@@H](C)CC)C(=O)N(C)CC(=O)N(C)[C@H]3C/C=C\CCN(C3=O)[C@@H](Cc3ccc(C(F)(F)F)cc3)C(=O)N(C)CC(=O)N[C@@H](CCc3cc(F)c(C(F)(F)F)c(F)c3)C(=O)N2C1 [PP1945] | 33.8 nM | 0.31 nM | AA (a compound having 20 or more is denoted as AA) | A (a compound having 10 or more and less than 20 is denoted as A)
